# From US20250074889A1, “Novel Aminobenzene Derivative Having Cancer Cell Growth Inhibitory Effect, and Preventive or Therapeutic Pharmaceutical Composition Containing Same as Active Ingredient” (Daewoong Pharmaceutical Co., Ltd., priority 2022, published 2025)
# Legend:
# Type in all cases: cell-based
# [1] = system: NCI-H226 human mesothelioma cell line; experiment: Cell growth inhibition test (CellTiter-Glo), NCI-H226; conditions: NCI-H226 cells
# Protocol: (§1) The cell growth for the compounds prepared in Examples was measured by CellTiter-Glo® Luminescent Cell Viability (Promega, Catalog #G7571) method using NCI-H226 (addexbio), NCI-H28 (Korea Cell Line Bank) and MSTO-211H (elabscience) human mesothelioma cell lines. This evaluation method is a method in which when luciferase enzyme is activated by ATP flowing out from living cells, it reacts with a luciferin substrate, and the enzyme activity at this time is measured to confirm cell viability.
# (§2) Specifically, NCI-H226, NCI-H28, and MSTO-211H cells were prepared in 100 μL of cell culture medium (RPMI medium, 10% FBS, 1% P/S, 4.5 g/L D-Glucose, 2.383 g/L HEPES Buffer, L-Glutamine, 1.5 g/L Sodium Bicarbonate, 110 mg/L Sodium pyruvate) in a white clear bottom 96-well microplate. The prepared plate was incubated in a 5% CO2 incubator at 37° C. for 24 hours, and then the previously prepared compounds of Examples were finally treated at concentrations of 0.001, 0.01, 0.1, 1, and 10 μM, which was repeated three times for all treatment solutions. The plates treated with the compounds of Examples were incubated in a 5% CO2 incubator at 37° C. 100 μL/well of the substrate aqueous solution containing luciferin was added to a white clear-bottom 96 well microplate, thereby initiating an enzyme reaction. The reaction was performed at room temperature in the dark for 10 minutes, and the luminescence was measured using a Flexstation3 multi-mode microplate reader. In accordance with the instructions for the CellTiter-Glo™ Luminescednt Cell Viability, the luciferase enzyme activity, which represents the amount of ATP, was measured by a chemiluminescence method, and the inhibitory activity of the compounds according to the present invention was calculated. The results of each compound were analyzed using Microsoft Excel, and the IC50 values were calculated using GraphPad Prism software.
# [2] = system: transcription factor TEAD; experiment: Activity inhibition test of transcription factor TEAD (ONE-Glo luciferase, TEAD reporter-MCF7 cell line); conditions: Homo sapiens; TEAD Reporter-MCF7 cells, 24 hours treatment, luciferase luminescence
# Protocol: The transcription factor TEAD activity of the compounds prepared in Examples was measured by the ONE-Glo™ Luciferase assay (Promega, Catalog #E6110) method using the Hippo Pathway TEAD reporter-MCF7 recombinant cell line (BPS Bioscience, Catalog #60618).
# Specifically, the TEAD Reporter-MCF7 cell line contains the firefly luciferase gene whose expression is regulated under the control of TEAD response elements in the MCF7, which is a human breast cancer cell line. In the cell line, a non-phosphorylated YAP/TAZ exists in the nucleus in a non-stressed condition, which continuously induces expression of the luciferase reporter.
# TEAD Reporter-MCF7 cells were prepared in 100 μL of cell culture medium (MEM medium, 10% FBS, 1% P/S, 400 μg/mL Geneticin, 1% […], 1 mM NA pyruvate, 10 μg/mL Insulin) in a white clear bottom 96-well microplate. The prepared plate was incubated in a 5% CO2 incubator at 37° C. for 24 hours, and then the previously prepared compounds of Examples were finally treated at concentrations of 0.001, 0.01, 0.1, 1, and 10 µM, which were repeated three times for all treatment solutions. The plates treated with the compounds of Examples were incubated in a 5% CO2 incubator at 37° C. for 24 hours. 100 μL/well of the substrate aqueous solution containing luciferin was added to a white clear-bottom 96 well microplate, thereby initiating an enzyme reaction. The reaction was performed at room temperature for 5 minutes, and the luminescence (integration time 1000 ms) was measured using a Flexstation3 multi-mode microplate reader. In accordance with the instructions for the ONE-Glo™ Luciferase Assay, the luciferase enzyme activity, which represents the activity of the transcription factor TEAD, was measured by a chemiluminescence method, and the inhibitory activity of the compound according to the present invention was calculated. The results of each compound were analyzed using Microsoft Excel, and the IC50 values were calculated by GraphPad Prism software.
# [3] = system: NCI-H28 human mesothelioma cell line; experiment: Cell growth inhibition test (CellTiter-Glo), NCI-H28; conditions: NCI-H28 cells
# Protocol: as §1, §2
# [4] = system: MSTO-211H human mesothelioma cell line; experiment: Cell growth inhibition test (CellTiter-Glo), MSTO-211H; conditions: MSTO-211H cells
# Protocol: as §1, §2
SMILES,IC50 [1],IC50 [2],IC50 [3],IC50 [4]
"C=CC(=O)Nc1ccc(NC2CCCCC2)c(-c2ccccc2)c1 [Example 1, N-(6-(cyclohexylamino)-[1,1′-biphenyl]-3-yl)acrylamide]",132 nM,42 nM,–,–
"C=CC(=O)Nc1ccc(NC2CCCCC2)c(-c2ccccn2)c1 [Example 2, N-(4-(cyclohexylamino)-3-(pyridin-2-yl)phenyl)acrylamide]",46 nM,12.3 nM,–,–
"C=CC(=O)Nc1ccc(N[C@H]2CC[C@@H](C(F)(F)F)CC2)c(-c2ccccn2)c1 [Example 3, N-(3-(pyridin-2-yl)-4-((cis-4-(trifluoromethyl)cyclohexyl)amino)phenyl)acrylamide]",> 10000 nM,3.7 nM,–,–
"C=CC(=O)Nc1ccc(Nc2ccc(C(F)(F)F)cn2)c(-c2ccccn2)c1 [Example 4, N-(3-(pyridin-2-yl)-4-((5-(trifluoromethyl)pyridin-2-yl)amino)phenyl)acrylamide]",6 nM,17.8 nM,3310 nM,130 nM
"C=CC(=O)Nc1ccc(Nc2ncc(C(F)(F)F)cc2Cl)c(-c2ccccn2)c1 [Example 7, N-(4-((3-chloro-5-(trifluoromethyl)pyridin-2-yl)amino)-3-(pyridin-2-yl)phenyl)acrylamide]",122 nM,53.5 nM,–,–
"C=CC(=O)Nc1ccc(Nc2cc(Cl)c(Cl)cn2)c(-c2ccccn2)c1 [Example 8, N-(4-((4,5-dichloropyridin-2-yl)amino)-3-(pyridin-2-yl)phenyl)acrylamide]",14 nM,15.4 nM,–,–
"C=CC(=O)Nc1ccc(Nc2ncc(C(F)(F)F)cc2Cl)c(-c2cn(C)cn2)c1 [Example 9, N-(4-((3-chloro-5-(trifluoromethyl)pyridin-2-yl)amino)-3-(1-methyl-1H-imidazol-4-yl)phenyl)acrylamide]",26 nM,80 nM,–,–
"C=CC(=O)Nc1ccc(Nc2cc(Cl)c(Cl)cn2)c(-c2cn(C)cn2)c1 [Example 10, N-(4-((4,5-dichloropyridin-2-yl)amino)-3-(1-methyl-1H-imidazol-4-yl)phenyl)acrylamide]",10 nM,23 nM,–,–
"C=CC(=O)Nc1ccc(NCc2ccc(F)cc2)c(-c2ccccc2)c1 [Example 11, N-(6-((4-fluorobenzyl)amino)-[1,1′-biphenyl]-3-yl)acrylamide]",129 nM,28.2 nM,–,–
"C=CC(=O)Nc1ccc(NCc2ccc(F)cc2)c(-c2ccccn2)c1 [Example 12, N-(4-((4-fluorobenzyl)amino)-3-(pyridin-2-yl)phenyl)acrylamide]",1250 nM,2.4 nM,–,–
"C=CC(=O)Nc1ccc(Nc2cc(Cl)c(Cl)cn2)c(-c2ccncn2)c1 [Example 16, N-(4-((4,5-dichloropyridin-2-yl)amino)-3-(pyrimidin-4-yl)phenyl)acrylamide]",148 nM,69.1 nM,–,–
"C=CC(=O)Nc1ccc(NCCc2nccs2)c(/C=C/c2ccc(F)cc2)c1 [Example 23, (E)-N-(3-(4-fluorostyryl)-4-((2-(thiazol-2-yl)ethyl)amino)phenyl)acrylamide]",55 nM,48 nM,–,–
"C=CC(=O)Nc1cnc(NCCc2nccs2)c(/C=C/c2ccc(F)cc2)c1 [Example 27, (E)-N-(5-(4-fluorostyryl)-6-((2-(thiazol-2-yl)ethyl)amino)pyridin-3-yl)acrylamide]",985 nM,30 nM,–,–
C=CS(=O)(=O)Nc1cnc(NCCc2nccs2)c(/C=C/c2ccc(F)cc2)c1 [Example 28],875 nM,28.6 nM,–,–
"C=CC(=O)Nc1ccc(Nc2cc(C(F)(F)F)ccn2)c(-c2cn(C)cn2)c1 [Example 31, N-(3-(1-methyl-1H-imidazol-4-yl)-4-((4-(trifluoromethyl)pyridin-2-yl)amino)phenyl)acrylamide]",–,314 nM,3110 nM,> 10000 nM
"C#Cc1ccc(Nc2ccc(NC(=O)C=C)cc2-c2ccn(C)n2)nc1 [Example 34, N-(4-((5-ethynylpyridin-2-yl)amino)-3-(1-methyl-1H-pyrazol-3-yl)phenyl)acrylamide]",31.4 nM,5.7 nM,–,–
"C=CC(=O)Nc1cnc(Nc2ccc(C(F)(F)F)cc2)c(-c2cn(C)cn2)c1 [Example 41, N-(5-(1-methyl-1H-imidazol-4-yl)-6-((4-(trifluoromethyl)phenyl)amino)pyridin-3-yl)acrylamide]",6 nM,10 nM,–,–
"C=CC(=O)Nc1ccc(Nc2ccc(C(F)(F)F)cc2)c(-c2ccn(C)n2)c1 [Example 42, N-(3-(1-methyl-1H-pyrazol-3-yl)-4-((4-(trifluoromethyl)phenyl)amino)phenyl)acrylamide]",4.7 nM,7 nM,–,–
"C=CC(=O)Nc1ccc(Nc2ccc(C(F)(F)F)c(Cl)c2)c(-c2cn(C)cn2)c1 [Example 43, N-(4-((3-chloro-4-(trifluoromethyl)phenyl)amino)-3-(1-methyl-1H-imidazol-4-yl)phenyl)acrylamide]",7.4 nM,33 nM,–,–
"C=CC(=O)Nc1ccc(Nc2ccc(C(F)(F)F)c(F)c2F)c(-c2cn(C)cn2)c1 [Example 44, N-(4-((2,3-difluoro-4-(trifluoromethyl)phenyl)amino)-3-(1-methyl-1H-imidazol-4-yl)phenyl)acrylamide]",3.9 nM,8 nM,–,–
"C=CC(=O)Nc1ccc(Nc2ccc(OC(F)(F)F)cc2)c(-c2cn(C)cn2)c1 [Example 45, N-(3-(1-methyl-1H-imidazol-4-yl)-4-((4-(trifluoromethoxy)phenyl)amino)phenyl)acrylamide]",33.8 nM,113 nM,–,–
"C=CC(=O)Nc1ccc(Nc2cc(F)c(C(F)(F)F)c(F)c2)c(-c2cn(C)cn2)c1 [Example 46, N-(4-((3,5-difluoro-4-(trifluoromethyl)phenyl)amino)-3-(1-methyl-1H-imidazol-4-yl)phenyl)acrylamide]",13.1 nM,28 nM,–,–
"C=CC(=O)Nc1ccc(Nc2ccc(Cl)cc2)c(-c2cn(C)cn2)c1 [Example 47, N-(4-((4-chlorophenyl)amino)-3-(1-methyl-1H-imidazol-4-yl)phenyl)acrylamide]",3.3 nM,3.9 nM,–,–
"C=CC(=O)Nc1ccc(Nc2ccc(Br)c(C)n2)c(-c2cn(C)cn2)c1 [Example 48, N-(4-((5-bromo-6-methylpyridin-2-yl)amino)-3-(1-methyl-1H-imidazol-4-yl)phenyl)acrylamide]",10.3 nM,45 nM,–,–
"C=CC(=O)Nc1ccc(Nc2ccc(Cl)c(C)n2)c(-c2cn(C)cn2)c1 [Example 49, N-(4-((5-chloro-6-methylpyridin-2-yl)amino)-3-(1-methyl-1H-imidazol-4-yl)phenyl)acrylamide]",18.8 nM,258 nM,–,–
"C=CC(=O)Nc1ccc(Nc2ccc(Cl)cn2)c(-c2cn(C)cn2)c1 [Example 50, N-(4-((5-chloropyridin-2-yl)amino)-3-(1-methyl-1H-imidazol-4-yl)phenyl)acrylamide]",10.4 nM,88 nM,–,–
"C=CC(=O)Nc1ccc(Nc2cc(C(F)(F)F)ccn2)c(-c2ccn(C)n2)c1 [Example 54, N-(3-(1-methyl-1H-pyrazol-3-yl)-4-((4-(trifluoromethyl)pyridin-2-yl)amino)phenyl)acrylamide]",11.8 nM,23.4 nM,–,–
"C=CC(=O)Nc1ccc(Nc2ncc(C(F)(F)F)cc2F)c(-c2ccn(C)n2)c1 [Example 56, N-(4-((3-fluoro-5-(trifluoromethyl)pyridin-2-yl)amino)-3-(1-methyl-1H-pyrazol-3-yl)phenyl)acrylamide]",11 nM,5 nM,–,–
